Source: patent US20210037829A1, “ANTIMICROBIAL COMPOSITIONS FOR SURGICAL APPLICATIONS” (TELEFLEX MEDICAL INCORPORATED, priority 2015, published 2021)
Several values for one entry are separate records, joined by “and”; a condition that tells them apart may be missing. Equal values may be shown once.

What was measured:
Experiment in all cases: Time to Kill
Format in all cases: cell-based
Staphylococcus aureus = settings: 128 ppm; for Exposure time to complete kill: S. aureus, challenge 10^4-10^5 CFU/mL; for Number of Microbial Colonies: Staphylococcus aureus, replicates 1-5
Description: (§1) Alexidine and Chlorhexidine, both at a concentration of 128 ppm were exposed to a Gram positive bacteria (Staphylococcus aureus), a Gram negative bacteria (Pseudomonas aeruginosa), and a fungus (Candida albicans). The challenge concentration for each organism was 10^4-10^5 CFU/mL, and the exposure time varied from 0.5-60 minutes. […] Complete kill of all three organisms was observed within 0.5-1 minute of Alexidine exposure.

Pseudomonas aeruginosa = settings: 128 ppm; for Exposure time to complete kill: P. aeruginosa, challenge 10^4-10^5 CFU/mL; for Number of Microbial Colonies: Pseudomonas aeruginosa, replicates 1-5
Description: as §1

Candida albicans = settings: 128 ppm; for Exposure time to complete kill: C. albicans, challenge 10^4-10^5 CFU/mL; for Number of Microbial Colonies: Candida albicans, replicates 1-5
Description: as §1

[1] = exposure 0.5 minutes, TNTC = too numerous to count
[2] = exposure 1 minute, TNTC = too numerous to count
[3] = exposure 5 minutes, TNTC = too numerous to count

| Compound | Exposure time to complete kill (Staphylococcus aureus) [min] | Number of Microbial Colonies (Staphylococcus aureus; [1]) | Number of Microbial Colonies (Staphylococcus aureus; [2]) | Number of Microbial Colonies (Staphylococcus aureus; [3]) | Number of Microbial Colonies (Staphylococcus aureus; exposure 60 minutes) | Exposure time to complete kill (Pseudomonas aeruginosa) [min] | Number of Microbial Colonies (Pseudomonas aeruginosa; exposure 0.5 minutes) | Number of Microbial Colonies (Pseudomonas aeruginosa; exposure 1 minute) | Number of Microbial Colonies (Pseudomonas aeruginosa; exposure 5 minutes) | Number of Microbial Colonies (Pseudomonas aeruginosa; exposure 60 minutes) | Exposure time to complete kill (Candida albicans) [min] | Number of Microbial Colonies (Candida albicans; [1]) | Number of Microbial Colonies (Candida albicans; [2]) | Number of Microbial Colonies (Candida albicans; [3]) | Number of Microbial Colonies (Candida albicans; exposure 60 minutes) |
| --- | --- | --- | --- | --- | --- | --- | --- | --- | --- | --- | --- | --- | --- | --- | --- |
| CCCCC(CC)CNC(=N)NC(=N)NCCCCCCNC(=N)NC(=N)NCC(CC)CCCC (stereo not drawn) [Alexidine] | 0.5 to 1 | 0 | 0 | 0 | 0 | 0.5 to 1 | 0 | 0 | 0 | 0 | 0.5 to 1 | 3 and 0 (4×) | 0 (4×) and 1 | 0 | 0 |
| [H]/N=C(\N/C(=N/[H])NCCCCCCNC(=N)NC(=N)Nc1ccc(Cl)cc1)Nc1ccc(Cl)cc1 [Chlorhexidine] | 60 | TNTC | TNTC | TNTC | 1 (2×) and 0 (3×) | 5 | 7 and 4 and 5 and 2 and 1 | 1 | 0 | 0 | 60 | TNTC | TNTC | 30 and 20 and 32 and 24 and TNTC | 0 |
